The text below walks through data of US10533015B1, “Opioid receptor antagonist prodrugs” (Nirsum Laboratories, Inc., priority 2019, dated 2020).

The structures appear in SMILES notation.

The target in series [1] is T1, MOR (Homo sapiens, UniProt P35372).
T1 construct: expressed in transfected cells
The series is described as follows: Opioid receptor binding assay, MOR ([3H]DAMGO). Conditions: MaxDose 10000 nM. On the procedure:
(§1) Receptor binding assays were performed to assess the ability of compounds to inhibit binding to radiolabeled ligand.
(§2) The stable cell lines were established and prepared cell membrane obtained using these cell lines.
(§3) 3) Assay Procedure 1) Transfer 1 μl of specified concentration compound to assay plate according to the plate map for nonspecific binding. Transfer 1 μl of DMSO to assay plate according to plate map for total binding. 2) Follow the plate map. Dispense 99 μl of membrane stocks into the plate. 3) Add 100 μl of radio ligand. 4) Seal the plates. Incubate at RT for 1 hour. 5) Soak the Unifilter-96 GF/C filter plates with 50 μl of 0.3% PEI per well for at least 0.5 hour at room temperature. 6) When binding assays are completed, filter the reaction mixture through GF/C plates using Perkin Elmer Filtermate Harvester, and then wash each plate for 4 times with cold wash buffer. 7) Dry the filter plates for 1 hour at 50 degrees. 8) After drying, seal the bottom of the filter plate wells using Perkin Elmer Unifilter-96 backing seal tape. Add 50 μl of Perkin Elmer Microscint 20 cocktail. Seal top of filter plates with Perkin Elmer TopSeal-A sealing film. 9) Count ^3H trapped on filter using Perkin Elmer MicroBeta2 Reader second day. 10) Analyze the data with GraphPad Prism 5. […]

Series [2] addresses T2, KOR (Homo sapiens, UniProt P41145).
T2 construct: expressed in transfected cells
The series is described as follows: Opioid receptor binding assay, KOR ([3H]Diprenorphine). The conditions noted are these: MaxDose 10000 nM. On the procedure:
as §1, §2, §3

For series [3] the following is noted: Water; heating temp. 40 °C, obs. temp. 40 °C.

T1 sequence (P35372 whole entry): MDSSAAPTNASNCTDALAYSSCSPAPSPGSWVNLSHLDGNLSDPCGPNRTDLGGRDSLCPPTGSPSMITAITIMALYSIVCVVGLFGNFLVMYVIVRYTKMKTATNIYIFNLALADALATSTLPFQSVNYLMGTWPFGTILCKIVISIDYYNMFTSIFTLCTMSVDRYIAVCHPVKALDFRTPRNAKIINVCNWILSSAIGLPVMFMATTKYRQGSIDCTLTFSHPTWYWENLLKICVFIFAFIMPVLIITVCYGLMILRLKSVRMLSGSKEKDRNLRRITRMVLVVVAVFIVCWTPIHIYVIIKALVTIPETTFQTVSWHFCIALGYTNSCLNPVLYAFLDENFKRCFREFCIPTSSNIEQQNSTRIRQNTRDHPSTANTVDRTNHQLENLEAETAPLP
T2 sequence (P41145 whole entry): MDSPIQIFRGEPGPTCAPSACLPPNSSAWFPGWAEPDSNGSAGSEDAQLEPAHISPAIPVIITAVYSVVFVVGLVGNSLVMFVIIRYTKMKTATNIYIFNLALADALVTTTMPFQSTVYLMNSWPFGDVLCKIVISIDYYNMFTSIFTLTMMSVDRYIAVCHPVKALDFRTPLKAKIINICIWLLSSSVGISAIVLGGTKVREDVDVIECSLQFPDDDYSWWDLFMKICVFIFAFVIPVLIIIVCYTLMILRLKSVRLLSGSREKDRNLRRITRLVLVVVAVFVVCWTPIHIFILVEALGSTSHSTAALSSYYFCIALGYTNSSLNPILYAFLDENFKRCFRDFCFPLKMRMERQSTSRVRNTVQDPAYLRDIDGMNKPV

Regarding `C=C1CC[C@@]2(O)C3Cc4ccc(OCOC(=O)OCCCCCCCCCCCCCCCC)c5c4[C@@]2(CCN3CC2CC2)[C@H]1O5` [Compound 34, (((4aS,7aS,12bS)-3-(cyclopropylmethyl)-4a-hydroxy-7-methylene-2,3,4,4a,5,6,7,7a-octahydro-1H-4,12-methanobenzofuro[3,2-e]isoquinolin-9-yl)oxy)methyl hexadecyl carbonate], the entries for the “% Inh@MaxDose” value in series [1] and in series [2] were 92.7% and 68.1%, respectively. Further, the “Equilibrium solubility (mg/mL) Water” value in series [3] was less than 0.001 mg/mL.
